Measurements as given in patent publication US20230373985A1 (Origenis Gmbh, priority 2020, published 2023).

How the values were obtained:
[1] = target: T1, wt human LRRK2, catalytic site (Homo sapiens, UniProt Q5S007); experiment: TR-FRET LanthaScreen Eu Kinase Binding Assay, LRRK2 wt; settings: one range stated for wt and G2019, read-out: IC50, Activity Toward LRRK2(Wt)
T1 construct: 5 nM wt human LRRK2, catalytic site; purchased ThermoFisher
Procedure: (§1) The basic protocol for TR-FRET LanthaScreen Eu Kinase Binding Assay inhibitor studies were performed as follows. LanthaScreen Kinase Binding Assays (ThermoFisher/USA) to evaluate inhibitors were performed by addition of 5 μL of test compound in corresponding DMSO dilutions/5 μl of kinase/antibody mixture, 5 μL of tracer into 384 well small volume plates. After incubation for 1 hour at room temperature, plates were read. Data analysis of emission ratios was according LanthaScreen Eu Kinase Binding Assay protocol.
(§2) Kinase and assay components were adjusted to final concentrations according to kit protocol. For LRRK2: 5 nM wt human LRRK2, catalytic site, or G2019S human LRRK2, catalytic site (ThermoFisher/USA), 2 nM Eu-Anti-GST Antibody, 10 nM Kinase Tracer 236 in 1× Kinase Buffer A. For NUAK1: 8 nM wt human NUAK1, full length (ThermoFisher/USA), 2 nM Eu-Anti-His Antibody, 5 nM Kinase Tracer 236 in 1× Kinase Buffer A.

[2] = target: T2, wt human JAK1, catalytic site (Homo sapiens, UniProt P23458); experiment: HTRF KinEASE assay, JAK1; assay type: biochemical; settings: 2.5 μM ATP; read-out: IC50, Activity Toward JAK1
T2 construct: wt human JAK1, catalytic site; purchased ThermoFisher
How it was run: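 Two-step HTRF KinEASE assay: compound, kinase/biotinylated TK substrate and ATP were incubated at least 30 min at room temperature. Antibody plus streptavidin-XL665 was then added and plates were read after 60 min. Inhibition was derived from emission ratios according to the kit protocol.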

[3] = target: T3, wt human TYK2, catalytic site (Homo sapiens, UniProt P29597); experiment: HTRF KinEASE assay, TYK2; assay type: biochemical; settings: 1 μM ATP; read-out: IC50, Activity Toward TYK2
T3 construct: wt human TYK2, catalytic site; purchased SignalChem
T3 sequence (P29597 897-1176 limits assumed): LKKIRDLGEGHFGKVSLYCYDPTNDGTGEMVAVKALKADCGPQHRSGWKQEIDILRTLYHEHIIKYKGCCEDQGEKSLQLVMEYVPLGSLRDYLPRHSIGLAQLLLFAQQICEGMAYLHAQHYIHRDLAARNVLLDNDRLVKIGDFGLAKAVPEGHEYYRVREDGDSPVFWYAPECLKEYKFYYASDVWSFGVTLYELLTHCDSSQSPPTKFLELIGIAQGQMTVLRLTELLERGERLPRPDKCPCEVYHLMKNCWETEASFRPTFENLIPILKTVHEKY
How it was run: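 HTRF KinEASE-TK readout with 1 μM biotinylated TK substrate in 1× kinase buffer, ≥30 min at room temperature, then antibody/streptavidin-XL665 detection for 60 min. TYK2 at 2 nM with 1 μM ATP; JAK2 at 1 nM with 100 μM ATP. Analysis uses emission ratios.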

[4] = target: T4, G2019S human LRRK2, catalytic site (Homo sapiens, UniProt Q5S007, G2019S); experiment: TR-FRET LanthaScreen Eu Kinase Binding Assay, LRRK2 G2019S; settings: LRRK2(G2019); one range stated for wt and G2019; read-out: IC50, Activity Toward LRRK2(G2019)
T4 construct: G2019S human LRRK2, catalytic site; purchased ThermoFisher
Procedure: as §1, §2

T2 sequence (P23458 875-1153 limits assumed): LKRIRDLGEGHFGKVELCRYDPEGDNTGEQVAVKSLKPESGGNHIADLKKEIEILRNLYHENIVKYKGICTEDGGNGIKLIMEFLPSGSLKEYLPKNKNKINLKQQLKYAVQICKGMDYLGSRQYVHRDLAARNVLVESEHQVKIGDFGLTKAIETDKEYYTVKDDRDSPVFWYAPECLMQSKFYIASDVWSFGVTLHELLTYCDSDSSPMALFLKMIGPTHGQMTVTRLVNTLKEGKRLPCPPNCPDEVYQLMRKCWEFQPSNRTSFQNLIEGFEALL
T4 sequence (Q5S007 970-2527 G2019S limits assumed): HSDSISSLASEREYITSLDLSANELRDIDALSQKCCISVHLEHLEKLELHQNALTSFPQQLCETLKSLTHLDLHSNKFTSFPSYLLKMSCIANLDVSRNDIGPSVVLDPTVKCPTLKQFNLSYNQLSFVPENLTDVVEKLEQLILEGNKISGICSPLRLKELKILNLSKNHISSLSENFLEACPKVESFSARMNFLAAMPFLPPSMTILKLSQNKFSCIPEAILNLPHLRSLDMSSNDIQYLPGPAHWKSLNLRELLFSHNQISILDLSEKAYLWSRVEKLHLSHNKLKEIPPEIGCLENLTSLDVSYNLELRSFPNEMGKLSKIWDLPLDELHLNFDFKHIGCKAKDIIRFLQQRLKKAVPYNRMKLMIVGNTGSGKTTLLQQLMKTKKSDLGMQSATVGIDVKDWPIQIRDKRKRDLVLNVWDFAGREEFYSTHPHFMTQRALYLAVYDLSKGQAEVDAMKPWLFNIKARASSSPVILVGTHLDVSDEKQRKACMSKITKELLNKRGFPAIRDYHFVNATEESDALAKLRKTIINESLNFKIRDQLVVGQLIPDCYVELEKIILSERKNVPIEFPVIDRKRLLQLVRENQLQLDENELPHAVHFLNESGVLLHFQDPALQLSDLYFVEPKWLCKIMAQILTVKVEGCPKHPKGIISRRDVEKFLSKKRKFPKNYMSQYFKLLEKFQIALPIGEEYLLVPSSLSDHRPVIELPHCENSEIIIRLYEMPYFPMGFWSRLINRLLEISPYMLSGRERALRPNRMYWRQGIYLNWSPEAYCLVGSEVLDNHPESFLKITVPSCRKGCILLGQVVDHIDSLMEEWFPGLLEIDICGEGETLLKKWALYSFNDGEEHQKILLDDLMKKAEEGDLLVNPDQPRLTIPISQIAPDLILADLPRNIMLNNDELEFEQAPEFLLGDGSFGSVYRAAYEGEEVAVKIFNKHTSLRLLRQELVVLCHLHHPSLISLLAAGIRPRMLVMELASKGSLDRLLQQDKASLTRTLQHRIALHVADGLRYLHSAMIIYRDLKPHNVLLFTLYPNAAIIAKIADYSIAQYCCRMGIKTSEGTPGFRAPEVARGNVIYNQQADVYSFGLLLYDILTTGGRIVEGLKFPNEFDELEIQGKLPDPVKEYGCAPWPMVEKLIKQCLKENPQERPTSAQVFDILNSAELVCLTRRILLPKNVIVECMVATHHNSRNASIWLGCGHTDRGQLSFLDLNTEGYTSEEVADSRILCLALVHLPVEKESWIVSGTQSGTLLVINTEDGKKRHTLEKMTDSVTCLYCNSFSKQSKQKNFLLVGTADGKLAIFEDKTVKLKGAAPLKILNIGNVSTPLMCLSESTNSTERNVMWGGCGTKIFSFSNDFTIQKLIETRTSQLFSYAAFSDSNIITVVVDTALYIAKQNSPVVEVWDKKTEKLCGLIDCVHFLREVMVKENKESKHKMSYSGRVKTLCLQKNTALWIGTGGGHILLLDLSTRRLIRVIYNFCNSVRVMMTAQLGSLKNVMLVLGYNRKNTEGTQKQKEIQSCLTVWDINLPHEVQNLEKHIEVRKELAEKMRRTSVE
T1 sequence (Q5S007 970-2527 limits assumed): as the sequence (Q5S007 970-2527 G2019S limits assumed) above, with S1050G counted along it

SMILES	IC50 [1]	IC50 [2]	IC50 [3]	IC50 [4]
NC(=O)c1nn(-c2c(Cl)cccc2Cl)cc1Nc1ccc(C(=O)N2CCN(C3CC3)CC2)cc1 [compound 84, 4-((4-(4-cyclopropylpiperazine-1-carbonyl)phenyl)amino)-1-(2,6-dichlorophenyl)-1H-pyrazole-3-carboxamide]	100 to 1000 nM	10 to 100 nM	< 10 nM	100 to 1000 nM
CN1CCN(S(=O)(=O)c2ccc(Nc3cn(-c4c(Cl)cccc4Cl)nc3C(N)=O)cc2)CC1 [compound 85, 1-(2,6-dichlorophenyl)-4-((4-((4-methylpiperazin-1-yl)sulfonyl)phenyl)amino)-1H-pyrazole-3-carboxamide]	100 to 1000 nM	10 to 100 nM	< 10 nM	100 to 1000 nM
CN1CCC(NS(=O)(=O)c2ccc(Nc3cn(-c4c(Cl)cccc4Cl)nc3C(N)=O)cc2)CC1 [compound 89, 1-(2,6-dichlorophenyl)-4-((4-(N-(1-methylpiperidin-4-yl)sulfamoyl)phenyl)amino)-1H-pyrazole-3-carboxamide]	100 to 1000 nM	100 to 1000 nM	< 10 nM	100 to 1000 nM
Cn1nc(C(F)(F)F)nc1-c1ccc(Nc2cn(-c3c(F)cccc3Cl)nc2C(N)=O)cc1 [compound 231, 1-(2-chloro-6-fluorophenyl)-4-((4-(1-methyl-3-(trifluoromethyl)-1H-1,2,4-triazol-5-yl)phenyl)amino)-1H-pyrazole-3-carboxamide]	100 to 1000 nM	< 10 nM	< 10 nM	100 to 1000 nM
Cc1ccnn1-c1ccc(Nc2cn(-c3c(F)cccc3Cl)nc2C(N)=O)cc1 [compound 233, 1-(2-chloro-6-fluorophenyl)-4-((4-(5-methyl-1H-pyrazol-1-yl)phenyl)amino)-1H-pyrazole-3-carboxamide]	100 to 1000 nM	10 to 100 nM	10 to 100 nM	100 to 1000 nM
NC(=O)c1nn(-c2c(Cl)cccc2Cl)cc1Nc1ccc(C(=O)N2CCC(F)C2)cc1 (stereo not drawn) [compound 246, 1-(2,6-dichlorophenyl)-4-((4-(3-fluoropyrrolidine-1-carbonyl)phenyl)amino)-1H-pyrazole-3-carboxamide]	100 to 1000 nM	10 to 100 nM	10 to 100 nM	100 to 1000 nM
NC(=O)c1nn(-c2c(Cl)cccc2Cl)cc1Nc1ccc(C(=O)N2CCC(F)(F)C2)cc1 [compound 247, 1-(2,6-dichlorophenyl)-4-((4-(3,3-difluoropyrrolidine-1-carbonyl)phenyl)amino)-1H-pyrazole-3-carboxamide]	100 to 1000 nM	10 to 100 nM	< 10 nM	100 to 1000 nM
CCc1nnnn1-c1ccc(Nc2cn(-c3c(Cl)cccc3Cl)nc2C(N)=O)cc1 [compound 259, 1-(2,6-dichlorophenyl)-4-((4-(5-ethyl-1H-tetrazol-1-yl)phenyl)amino)-1H-pyrazole-3-carboxamide]	100 to 1000 nM	10 to 100 nM	< 10 nM	100 to 1000 nM
Cc1cnccc1-c1ccc(Nc2cn(-c3c(Cl)cccc3Cl)nc2C(N)=O)cc1 [compound 260, 1-(2,6-dichlorophenyl)-4-((4-(3-methylpyridin-4-yl)phenyl)amino)-1H-pyrazole-3-carboxamide]	100 to 1000 nM	10 to 100 nM	100 to 1000 nM	100 to 1000 nM
Cc1c[n+]([O-])ccc1-c1ccc(Nc2cn(-c3c(Cl)cccc3Cl)nc2C(N)=O)cc1 [compound 267, 4-(4-((3-carbamoyl-1-(2,6-dichlorophenyl)-1H-pyrazol-4-yl)amino)phenyl)-3-methylpridine_1-oxide]	100 to 1000 nM	10 to 100 nM	10 to 100 nM	100 to 1000 nM
NC(=O)c1nn(-c2c(Cl)cccc2Cl)cc1Nc1ccc(-c2nccn2CC(F)(F)F)cc1 [compound 268, 1-(2,6-dichlorophenyl)-4-((4-(1-(2,2,2-trifluoroethyl)-1H-imidazol-2-yl)phenyl)amino)-1H-pyrazole-3-carboxamide]	100 to 1000 nM	10 to 100 nM	10 to 100 nM	100 to 1000 nM
NC(=O)c1nn(-c2c(Cl)cccc2Cl)cc1Nc1ccc(N2CCCS2(=O)=O)cc1 [compound 272, 1-(2,6-dichlorophenyl)-4-((4-(1,1-dioxidoisothiazolidin-2-yl)phenyl)amino)-1H-pyrazole-3-carboxamide]	100 to 1000 nM	10 to 100 nM	100 to 1000 nM	100 to 1000 nM
N#CC1CN(C(=O)c2ccc(Nc3cn(-c4c(Cl)cccc4Cl)nc3C(N)=O)cc2)C1 [compound 276, 4-((4-(3-cyanoazetidine-1-carbonyl)phenyl)amino)-1-(2,6-dichlorophenyl)-1H-pyrazole-3-carboxamide]	100 to 1000 nM	10 to 100 nM	< 10 nM	100 to 1000 nM
CCc1nc(C(F)(F)F)nn1-c1ccc(Nc2cn(-c3c(F)cccc3Cl)nc2C(N)=O)cc1 [compound 283, 1-(2-chloro-6-fluorophenyl)-4-((4-(5-ethyl-3-(trifluoromethyl)-1H-1,2,4-triazol-1-yl)phenyl)amino)-1H-pyrazole-3-carboxamide]	100 to 1000 nM	100 to 1000 nM	< 10 nM	100 to 1000 nM
COCc1nc(C(F)(F)F)nn1-c1ccc(Nc2cn(-c3c(F)cccc3F)nc2C(N)=O)cc1 [compound 299, 1-(2,6-difluorophenyl)-4-((4-(5-(methoxymethyl)-3-(trifluoromethyl)-1H-1,2,4-triazol-1-yl)phenyl)amino)-1H-pyrazole-3-carboxamide]	100 to 1000 nM	100 to 1000 nM	< 10 nM	100 to 1000 nM
CCn1nc(C(F)(F)F)nc1-c1ccc(Nc2cn(-c3c(F)cccc3F)nc2C(N)=O)cc1 [compound 302, 1-(2,6-difluorophenyl)-4-((4-(1-ethyl-3-(trifluoromethyl)-1H-1,2,4-triazol-5-yl)phenyl)amino)-1H-pyrazole-3-carboxamide]	100 to 1000 nM	10 to 100 nM	< 10 nM	100 to 1000 nM
CCn1cc(C(F)(F)F)nc1-c1ccc(Nc2cn(-c3c(F)cccc3Cl)nc2C(N)=O)cc1 [compound 303, 1-(2-chloro-6-fluorophenyl)-4-((4-(1-ethyl-4-(trifluoromethyl)-1H-imidazol-2-yl)phenyl)amino)-1H-pyrazole-3-carboxamide]	100 to 1000 nM	10 to 100 nM	10 to 100 nM	100 to 1000 nM
CCn1cc(C(F)(F)F)nc1-c1ccc(Nc2cn(-c3c(F)cccc3F)nc2C(N)=O)cc1 [compound 304, 1-(2,6-difluorophenyl)-4-((4-(1-ethyl-4-(trifluoromethyl)-1H-imidazol-2-yl)phenyl)amino)-1H-pyrazole-3-carboxamide]	10 to 100 nM	100 to 1000 nM	10 to 100 nM	10 to 100 nM
Cn1cc(C(F)(F)F)nc1-c1ccc(Nc2cn(-c3c(F)cccc3Cl)nc2C(N)=O)cc1 [compound 305, 1-(2-chloro-6-fluorophenyl)-4-((4-(1-methyl-4-(trifluoromethyl)-1H-imidazol-2-yl)phenyl)amino)-1H-pyrazole-3-carboxamide]	100 to 1000 nM	10 to 100 nM	< 10 nM	100 to 1000 nM
CCn1cc(C#N)nc1-c1ccc(Nc2cn(-c3c(Cl)cccc3Cl)nc2C(N)=O)cc1 [compound 310, 4-((4-(4-cyano-1-ethyl-1H-imidazol-2-yl)phenyl)amino)-1-(2,6-dichlorophenyl)-1H-pyrazole-3-carboxamide]	100 to 1000 nM	10 to 100 nM	10 to 100 nM	100 to 1000 nM
NC(=O)c1nn(-c2c(Cl)cccc2Cl)cc1Nc1ccc(C(=O)N2CC[C@@H](F)C2)cc1 [compound 315, (R)-1-(2,6-dichlorophenyl)-4-((4-(3-fluoropyrrolidine-1-carbonyl)phenyl)amino)-1H-pyrazole-3-carboxamide]	100 to 1000 nM	10 to 100 nM	< 10 nM	100 to 1000 nM
